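Each compound was tested at five concentrations against cells in 96-well plates for 48 hours. Here, GI50 denotes the concentration required for 50% inhibition of growth. TGI: concentration producing complete growth inhibition.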 A value given as a limit tells only on which side of the number the result lay.

The values below come from PubChem BioAssay (NCI).

Test systems include EKVX NSCLC; M14 melanoma; RXF 393 renal; MDA-MB-435; K-562 leukemia; RPMI-8226 leukemia; A549 NSCLC; SK-MEL-5 melanoma; HOP-92 NSCLC; LOX IMVI melanoma.
Common to all, as to test: inhibition of tumour cell growth, NCI panel, 48 h

On to `COc1ccc(-c2[nH]ncc2Nc2cc(OC)c(OC)c(OC)c2)cc1`, for which the GI50 is 1930 nM in the experiment with EKVX NSCLC; 906 nM in the experiment on M14 melanoma; 1920 nM in the experiment with RXF 393 renal; 177 nM with MDA-MB-435; 420 nM in the experiment with K-562 leukemia; 1380 nM in the experiment with RPMI-8226 leukemia. Besides, the GI50 is 3390 nM in the experiment on A549 NSCLC, 1340 nM with SK-MEL-5 melanoma, more than 62900 nM with HOP-92 NSCLC and 6130 nM with LOX IMVI melanoma. Besides, the TGI with EKVX NSCLC was more than 49400 nM; in the experiment on M14 melanoma it was more than 100000 nM; with RXF 393 renal, more than 22300 nM; in the experiment on MDA-MB-435, 395 nM; in the experiment on K-562 leukemia, more than 52300 nM; in the experiment with RPMI-8226 leukemia, 5040 nM. Besides, the TGI is more than 100000 nM in the experiment with A549 NSCLC, 23000 nM with SK-MEL-5 melanoma, more than 100000 nM in the experiment with HOP-92 NSCLC and more than 100000 nM in the experiment on LOX IMVI melanoma.
As for `C(=N\Nc1ccc2ccccc2n1)/c1ccccn1`, the GI50 in the experiment with EKVX NSCLC is 370 nM; in the experiment on M14 melanoma it was 565 nM; in the experiment with RXF 393 renal, 443 nM; in the experiment on MDA-MB-435, 1010 nM; in the experiment with K-562 leukemia it was 487 nM; with RPMI-8226 leukemia, 513 nM. Moreover, the GI50 with A549 NSCLC is 563 nM; with SK-MEL-5 melanoma, 694 nM; in the experiment on HOP-92 NSCLC it was 816 nM; with LOX IMVI melanoma, 422 nM. In addition, the TGI in the experiment on EKVX NSCLC was more than 32900 nM; with M14 melanoma, 3450 nM; in the experiment with RXF 393 renal, more than 52000 nM; in the experiment with MDA-MB-435, more than 52700 nM; in the experiment on K-562 leukemia, more than 39100 nM; in the experiment with RPMI-8226 leukemia it was 15700 nM. For the same molecule, the TGI was more than 100000 nM with A549 NSCLC, 3670 nM with SK-MEL-5 melanoma, 32800 nM in the experiment with HOP-92 NSCLC and 13800 nM in the experiment on LOX IMVI melanoma.
In the case of `Fc1ccc(Nc2nc(Nc3ccc(-c4nc5ccccc5[nH]4)cc3)c3cn[nH]c3n2)cc1`, the GI50 in the experiment with EKVX NSCLC is 2500 nM; in the experiment with M14 melanoma, 2010 nM; with RXF 393 renal it was 1670 nM; in the experiment with MDA-MB-435, 1710 nM; in the experiment with K-562 leukemia, 3040 nM; in the experiment on RPMI-8226 leukemia, 2300 nM. In addition, the GI50 is 2750 nM in the experiment with A549 NSCLC, 9940 nM in the experiment on SK-MEL-5 melanoma, 1500 nM with HOP-92 NSCLC and 1790 nM with LOX IMVI melanoma. Moreover, the TGI with EKVX NSCLC stood at 8280 nM; with M14 melanoma it was 3950 nM; in the experiment with RXF 393 renal, 3400 nM; in the experiment with MDA-MB-435, 3230 nM; in the experiment on K-562 leukemia, 7410 nM; in the experiment with RPMI-8226 leukemia, 5200 nM. Further, the TGI was 6780 nM in the experiment on A549 NSCLC, 21900 nM in the experiment on SK-MEL-5 melanoma, 3190 nM in the experiment on HOP-92 NSCLC and 3620 nM with LOX IMVI melanoma.
For `NS(=O)(=O)c1ccc(N=Nc2c[nH]c(=O)c(O)c2)cc1`, the TGI in the experiment on EKVX NSCLC, with M14 melanoma, in the experiment on RXF 393 renal, in the experiment on MDA-MB-435, in the experiment on K-562 leukemia and in the experiment on RPMI-8226 leukemia was more than 100000 nM throughout. Moreover, the TGI with A549 NSCLC, with SK-MEL-5 melanoma, in the experiment with HOP-92 NSCLC and in the experiment with LOX IMVI melanoma was more than 100000 nM each time.
Regarding `COc1ccc2c(c1)C(=O)c1c-2n(CCCN(C)C)c(=O)c2cc([N+](=O)[O-])ccc12`, the GI50 with EKVX NSCLC was 181 nM; with M14 melanoma it was less than 10 nM; with RXF 393 renal, less than 10 nM; in the experiment on MDA-MB-435, less than 10 nM; with K-562 leukemia it was less than 10 nM; in the experiment with RPMI-8226 leukemia, less than 10 nM. In addition, the GI50 in the experiment with SK-MEL-5 melanoma was less than 10 nM; with HOP-92 NSCLC, 32.9 nM; in the experiment on LOX IMVI melanoma, less than 10 nM. Besides, the TGI with EKVX NSCLC is 16400 nM; in the experiment on M14 melanoma, 42.8 nM; in the experiment on RXF 393 renal, 92.6 nM; in the experiment on MDA-MB-435 it was 1320 nM; in the experiment on K-562 leukemia it was 2290 nM; in the experiment with RPMI-8226 leukemia, 70.7 nM. In addition, the figures for the TGI in the experiment with SK-MEL-5 melanoma, in the experiment on HOP-92 NSCLC and with LOX IMVI melanoma were less than 12 nM, 1440 nM and 108 nM, respectively.
As for `COc1ccc2nc3ccccc3c(NCCNCC(C)O)c2c1` (stereo unspecified), the GI50 with EKVX NSCLC is 1100 nM; in the experiment with M14 melanoma, 356 nM; with RXF 393 renal, 373 nM; with MDA-MB-435 it was 433 nM; with K-562 leukemia it was 330 nM; in the experiment on RPMI-8226 leukemia, 398 nM. In addition, the GI50 was 1030 nM in the experiment on SK-MEL-5 melanoma, 393 nM in the experiment on HOP-92 NSCLC and 202 nM in the experiment with LOX IMVI melanoma. For the same molecule, the TGI in the experiment with EKVX NSCLC stood at 7820 nM; with M14 melanoma, 1790 nM; with RXF 393 renal it was 1740 nM; in the experiment on MDA-MB-435 it was 1770 nM; with RPMI-8226 leukemia, 2660 nM; in the experiment with SK-MEL-5 melanoma, 2300 nM. Also, the TGI in the experiment on HOP-92 NSCLC amounted to 3480 nM; with LOX IMVI melanoma, 483 nM.
`O=C1/C(=C/c2ccc([N+](=O)[O-])o2)Oc2ccc(Cl)cc21`: the GI50 was 2010 nM in the experiment with M14 melanoma; 1650 nM with RXF 393 renal; 1990 nM in the experiment on MDA-MB-435; 438 nM with K-562 leukemia; 1370 nM in the experiment on RPMI-8226 leukemia; 6450 nM in the experiment with A549 NSCLC. In addition, the GI50 in the experiment on SK-MEL-5 melanoma is 1580 nM; in the experiment with HOP-92 NSCLC it was 1450 nM; in the experiment on LOX IMVI melanoma, 1590 nM. For the same molecule, the TGI with M14 melanoma amounted to 4930 nM; in the experiment with RXF 393 renal, 3600 nM; with MDA-MB-435, 4500 nM; in the experiment with K-562 leukemia it was 2170 nM; with RPMI-8226 leukemia, 4720 nM; in the experiment on A549 NSCLC, 59100 nM. In addition, the figures for the TGI in the experiment on SK-MEL-5 melanoma, with HOP-92 NSCLC and with LOX IMVI melanoma were 3030 nM, 3310 nM and 3190 nM, respectively.
`CC(C)(C)[Si](C)(C)OC1[C@@H](COC(=O)NC(=O)CCl)O[C@@H](n2cnc3c(N)ncnc32)[C@H]1O[Si](C)(C)C(C)(C)C` (stereo partly specified): the GI50 was 1390 nM with M14 melanoma; 2330 nM in the experiment on RXF 393 renal; 2350 nM in the experiment with MDA-MB-435; 1360 nM with K-562 leukemia; 1540 nM in the experiment with RPMI-8226 leukemia; 4940 nM with A549 NSCLC. For the same molecule, the GI50 with SK-MEL-5 melanoma is 1820 nM; in the experiment on HOP-92 NSCLC it was 1760 nM; in the experiment with LOX IMVI melanoma it was 410 nM. Besides, the TGI in the experiment with M14 melanoma came to 4230 nM; in the experiment with RXF 393 renal it was 7990 nM; in the experiment on MDA-MB-435, 8890 nM; in the experiment with K-562 leukemia, 3360 nM; in the experiment with RPMI-8226 leukemia it was 5630 nM; in the experiment on A549 NSCLC, 11900 nM. For the same molecule, the TGI was found to be 5020 nM in the experiment on SK-MEL-5 melanoma, 9240 nM with HOP-92 NSCLC and 1130 nM with LOX IMVI melanoma.
